Test results taken from patent US9994533B2, “Method of preparing ATG's analogue, and the application of ATG and it's analogue” (Longhua Hospital Shanghai University of Traditional Chinese …, priority 2016, dated 2018).

Legend:
[1] = tested on: NOX4 mRNA; experiment: NOX4 mRNA expression in human immortal podocytes under high glucose (Realtime PCR); format: cell-based; conditions: FIG. 7
Description: The detection method of Western Blot and mRNA used in the present embodiment is a detection method commonly used by person skilled in the art, and the specific detection method is described in “Molecular Biology Laboratory Manual” (People's Military Medical Press, published in 2011 Jun. 1). 3.1 Western blot and Realtime PCR confirmed that ATG in human immortal podocytes can inhibit the overexpression of NOX4 caused by high glucose stimuli, see table 5 and FIG. 6. The expression of NOX4 in the total protein, membrane protein and mitochondrial protein of human immortal podocytes was detected in the experiment.

[2] = tested on: diabetic kidney disease mice; experiment: Proteinuria in STZ-induced diabetic nephropathy mice; format: in vivo; conditions: 40 mg/kg oral once daily
Method: When the mice were 6 weeks of age, streptozotocin (STZ)-induced diabetic nephropathy models were started by tail vein injection. The specific method is: STZ in accordance with the amount of 50 mg/kg is injected in tail vein. 72 hours after the injection, determine whether the modeling is successful by determining the level of blood glucose and urine. When the blood glucose level is more than 16 mmol/L and urine glucose level is between +++ and ++++, the model was considered successful. After 10 weeks of STZ injection, ATG was orally administered at a dose of 40 mg/kg once daily. The control group was given the same volume of DMSO (dimethyl sulfoxide) orally. Treatment was for 8 weeks. Urine protein levels were measured in each group. The number of the mice in each group is 10 in Table 3. […] ACEI: angiotensin converting enzyme inhibitors; ARBs: angiotensin receptor blockers.

[3] = target: T1, PP2AB (Homo sapiens, UniProt P62714); experiment: DARTS-western blot of ATG binding to PP2A in 293T cells; conditions: ATG 100, 300, 1000 μM, pronase 1:1000, FIG. 1
T1 construct: endogenous in cells; host or cells: 293T
Method: We used ATG to stimulate 293T cells. […] The applied ATG was formulated at 3 different concentrations: 100 μM, 300 μM, 1000 μM. So there are 5 groups of Western Blot: blank group (without addition of pronase), DMSO (pronase 1:1000), ATG 100 μM (pronase 1:1000), ATG 300 μM (pronase 1:1000), ATG 1000 μM (Pronase 1:1000). […] While pronase can digest proteins, it digests more ATG-unbinding proteins than ATG-binding proteins. […] This method is called DARTS.
In FIG. 1: DARTS-western blot confirmed the binding of ATG to PP2AB; PP2A had three structural units, and ATG bound to the catalytic unit. The catalyst unit of the protein called PP2AB, the gene called PPP2CB.

[4] = tested on: NOX4 mRNA; experiment: NOX4 mRNA expression in mouse primary endothelial cells under high glucose (Realtime PCR); format: cell-based; conditions: FIG. 9
Description: The detection method of Western Blot and mRNA used in the present embodiment is a detection method commonly used by person skilled in the art, and the specific detection method is described in “Molecular Biology Laboratory Manual” (People's Military Medical Press, published in 2011 Jun. 1). 3.2 Western blot and Realtime PCR confirmed that ATG could inhibit the overexpression of NOX4 in mouse's primary endothelial cells. The dose of 1 and 10 μmol/L corresponds to the last two bands.

T1 sequence (P62714 whole entry): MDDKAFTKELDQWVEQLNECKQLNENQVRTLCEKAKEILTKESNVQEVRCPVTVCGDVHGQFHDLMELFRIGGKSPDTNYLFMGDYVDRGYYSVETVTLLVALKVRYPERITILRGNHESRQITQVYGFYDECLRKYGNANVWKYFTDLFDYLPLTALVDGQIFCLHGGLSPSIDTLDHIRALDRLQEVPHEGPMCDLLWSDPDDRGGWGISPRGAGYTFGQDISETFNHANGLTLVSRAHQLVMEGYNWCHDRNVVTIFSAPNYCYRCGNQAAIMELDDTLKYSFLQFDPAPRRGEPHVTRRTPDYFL

**Q.** With `COc1cc(C[C@H]2C(=O)OC[C@@H]2Cc2ccc(OC)c(OC)c2)ccc1O` [ATG, Arctigenin] as the compound, how does the “overexpression of NOX4 mRNA induced by high glucose” value [1] read?
**A.** able to inhibit the overexpression of NOX4 mRNA

**Q.** And the “proteinuria (urine protein level)” value ([2]; Model group - ATG (STZ mice), 0 week)?
**A.** 0.98

**Q.** And the “proteinuria (urine protein level)” value ([2]; Model group - ATG (STZ mice), 1 week)?
**A.** 0.95

**Q.** What about the “proteinuria (urine protein level)” value ([2]; Model group - ATG (STZ mice), 2 week) of the same compound?
**A.** 1.10

**Q.** And the “proteinuria (urine protein level)” value ([2]; Model group - ATG (STZ mice), 3 week)?
**A.** 0.66

**Q.** And the “proteinuria (urine protein level)” value ([2]; Model group - ATG (STZ mice), 4 week)?
**A.** 0.66

**Q.** And the “proteinuria (urine protein level)” value ([2]; Model group - ATG (STZ mice), 5 week)?
**A.** 0.37

**Q.** And the “proteinuria (urine protein level)” value ([2]; Model group - ATG (STZ mice), 6 week)?
**A.** 0.22

**Q.** What about the “proteinuria (urine protein level)” value ([2]; Model group - ATG (STZ mice), 7 week) of the same compound?
**A.** 0.18

**Q.** And the “proteinuria (urine protein level)” value ([2]; Model group - ATG (STZ mice), 8 week)?
**A.** 0.18

**Q.** What about the “proteinuria (urine protein level)” value ([2]; Normal group - ATG, 0 week) of the same compound?
**A.** 0.12

**Q.** And the “proteinuria (urine protein level)” value ([2]; Normal group - ATG, 1 week)?
**A.** 0.11

**Q.** And the “proteinuria (urine protein level)” value ([2]; Normal group - ATG, 2 week)?
**A.** 0.18

**Q.** And the “proteinuria (urine protein level)” value ([2]; Normal group - ATG, 3 week)?
**A.** 0.12

**Q.** And the “proteinuria (urine protein level)” value ([2]; Normal group - ATG, 4 week)?
**A.** 0.16

**Q.** What about the “proteinuria (urine protein level)” value ([2]; Normal group - ATG, 5 week) of the same compound?
**A.** 0.18

**Q.** And the “proteinuria (urine protein level)” value ([2]; Normal group - ATG, 6 week)?
**A.** 0.12

**Q.** And the “proteinuria (urine protein level)” value ([2]; Normal group - ATG, 7 week)?
**A.** 0.14

**Q.** What about the “proteinuria (urine protein level)” value ([2]; Normal group - ATG, 8 week) of the same compound?
**A.** 0.13

**Q.** And the effect on proteinuria ([2]; STZ mice, 8 weeks)?
**A.** significantly reduces proteinuria

**Q.** And the “effect on proteinuria compared with ACEI/ARBs” value ([2]; STZ mice, 8 weeks)?
**A.** superior to the ACEI/ARBs

**Q.** And the “PP2A binding (DARTS-western blot)” value [3]?
**A.** PP2A binding increased with the increasing concentration of ATG

**Q.** What about the “overexpression of NOX4 mRNA induced by high glucose” value [4] of the same compound?
**A.** inhibited the overexpression of NOX4 mRNA
